This is an account of results in patent publication US10774102B2, “Galactoside inhibitor of galectins” (Galecto Biotech AB, priority 2015, dated 2020).

Data set [1] is described as follows: Pharmacokinetic studies in mice. The settings on record: mouse, in vivo. The source says:
This is exemplified by Example 9 3,4-Dichlorophenyl 3-deoxy-3-[4-(3,4,5-trifluorophenyl)-1H-1,2,3-triazol-1-yl]-1-thio-α-D-galactopyranoside in the table below.

A further data set concerns galectins. The following applies: cited from earlier work.
The next data set concerns the target galectin-3 (Homo sapiens (Human), UniProt P17931). The experiment in a line: Fluorescence anisotropy assay of galectin-3 affinity (compound inhibits galectin binding to a fluorescein tagged saccharide probe). The following applies: high affinity probe, 50 nM galectin-3, 100 nM albumin. As to the method: 100 nM albumin was included as a carrier to prevent protein loss at such low concentration of galectin.

pKd: −log10 of the molar value.

galectin-3, sequence (P17931 whole entry): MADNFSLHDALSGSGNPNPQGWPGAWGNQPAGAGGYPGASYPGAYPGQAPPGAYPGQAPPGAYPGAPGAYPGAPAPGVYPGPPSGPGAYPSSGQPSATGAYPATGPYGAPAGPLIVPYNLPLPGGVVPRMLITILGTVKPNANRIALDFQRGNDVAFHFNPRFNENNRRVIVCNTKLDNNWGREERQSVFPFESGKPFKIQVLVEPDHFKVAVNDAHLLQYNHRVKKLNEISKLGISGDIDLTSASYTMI

Regarding `OC[C@H]1O[C@H](Sc2ccc(Cl)c(Cl)c2)[C@H](O)[C@@H](n2cc(-c3cc(F)c(F)c(F)c3)nn2)[C@H]1O` [Example 9, 3,4-Dichlorophenyl 3-deoxy-3-[4-(3,4,5-trifluorophenyl)-1H-1,2,3-triazol-1-yl]-1-thio-α-D-galactopyranoside], the bioavailability (as a rule, the share of a dose that reaches the circulation, judged against a reference dose that is usually intravenous) in data set [1] (10 mg/kg, oral, read-out: Bioavailability (F)) was 75%. For the same compound, the peak level in data set [1] (po, 10 mg/kg) (Cmax) was 16 µM. Moreover, the clearance (commonly a measure of how efficiently the substance is removed, as volume per time) in data set [1] (read-out: Clearance (CL)) is 1.2 mL/min/kg. The half-life in data set [1] (read-out: Halflife (t½) (converted)) was 4.5 h.
Take `O=C[C@H](O)[C@@H](O)[C@@H](O)[C@H](O)CO` [D-galactose, D-(+)-galactose]: the “affinity relative to lactose (times lower)” value with galectins (galectins, compared with lactose) is listed as 50-100 times lower.
Regarding `OC[C@H]1O[C@@H](O[C@H]2[C@H](O)[C@@H](O)C(O)O[C@@H]2CO)[C@H](O)[C@@H](O)[C@H]1O` (stereo partly shown) [lactose], the pKd (as a rule, the negative decadic logarithm of the Kd, by convention in mol/L) at galectins (all galectins) is 3.00 to 3.30.
With `[O-][S+](c1cncc(Cl)c1)[C@H]1OC(CO)[C@H](O)[C@H](n2cc(-c3cc(F)c(F)c(F)c3)nn2)C1O` (single isomer, unassigned; isomer 1) [Example 93, 5-Chloropyridin-3-yl 3-deoxy-3-[4-(3,4,5-trifluorophenyl)-1H-1,2,3-triazol-1-yl]-α-D-galactopyranosyl sulfoxide, isomer 1], the pKd on galectin-3 is 6.97.
